These results are taken from patent publication US9365588B2, “Benzoxazines as modulators of ion channels” (Vertex Pharmaceuticals Incorporated, priority 2011, dated 2016).

pIC50: −log10 of the molar value.

Sequence of human NaV 1.7 (Q15858 whole entry): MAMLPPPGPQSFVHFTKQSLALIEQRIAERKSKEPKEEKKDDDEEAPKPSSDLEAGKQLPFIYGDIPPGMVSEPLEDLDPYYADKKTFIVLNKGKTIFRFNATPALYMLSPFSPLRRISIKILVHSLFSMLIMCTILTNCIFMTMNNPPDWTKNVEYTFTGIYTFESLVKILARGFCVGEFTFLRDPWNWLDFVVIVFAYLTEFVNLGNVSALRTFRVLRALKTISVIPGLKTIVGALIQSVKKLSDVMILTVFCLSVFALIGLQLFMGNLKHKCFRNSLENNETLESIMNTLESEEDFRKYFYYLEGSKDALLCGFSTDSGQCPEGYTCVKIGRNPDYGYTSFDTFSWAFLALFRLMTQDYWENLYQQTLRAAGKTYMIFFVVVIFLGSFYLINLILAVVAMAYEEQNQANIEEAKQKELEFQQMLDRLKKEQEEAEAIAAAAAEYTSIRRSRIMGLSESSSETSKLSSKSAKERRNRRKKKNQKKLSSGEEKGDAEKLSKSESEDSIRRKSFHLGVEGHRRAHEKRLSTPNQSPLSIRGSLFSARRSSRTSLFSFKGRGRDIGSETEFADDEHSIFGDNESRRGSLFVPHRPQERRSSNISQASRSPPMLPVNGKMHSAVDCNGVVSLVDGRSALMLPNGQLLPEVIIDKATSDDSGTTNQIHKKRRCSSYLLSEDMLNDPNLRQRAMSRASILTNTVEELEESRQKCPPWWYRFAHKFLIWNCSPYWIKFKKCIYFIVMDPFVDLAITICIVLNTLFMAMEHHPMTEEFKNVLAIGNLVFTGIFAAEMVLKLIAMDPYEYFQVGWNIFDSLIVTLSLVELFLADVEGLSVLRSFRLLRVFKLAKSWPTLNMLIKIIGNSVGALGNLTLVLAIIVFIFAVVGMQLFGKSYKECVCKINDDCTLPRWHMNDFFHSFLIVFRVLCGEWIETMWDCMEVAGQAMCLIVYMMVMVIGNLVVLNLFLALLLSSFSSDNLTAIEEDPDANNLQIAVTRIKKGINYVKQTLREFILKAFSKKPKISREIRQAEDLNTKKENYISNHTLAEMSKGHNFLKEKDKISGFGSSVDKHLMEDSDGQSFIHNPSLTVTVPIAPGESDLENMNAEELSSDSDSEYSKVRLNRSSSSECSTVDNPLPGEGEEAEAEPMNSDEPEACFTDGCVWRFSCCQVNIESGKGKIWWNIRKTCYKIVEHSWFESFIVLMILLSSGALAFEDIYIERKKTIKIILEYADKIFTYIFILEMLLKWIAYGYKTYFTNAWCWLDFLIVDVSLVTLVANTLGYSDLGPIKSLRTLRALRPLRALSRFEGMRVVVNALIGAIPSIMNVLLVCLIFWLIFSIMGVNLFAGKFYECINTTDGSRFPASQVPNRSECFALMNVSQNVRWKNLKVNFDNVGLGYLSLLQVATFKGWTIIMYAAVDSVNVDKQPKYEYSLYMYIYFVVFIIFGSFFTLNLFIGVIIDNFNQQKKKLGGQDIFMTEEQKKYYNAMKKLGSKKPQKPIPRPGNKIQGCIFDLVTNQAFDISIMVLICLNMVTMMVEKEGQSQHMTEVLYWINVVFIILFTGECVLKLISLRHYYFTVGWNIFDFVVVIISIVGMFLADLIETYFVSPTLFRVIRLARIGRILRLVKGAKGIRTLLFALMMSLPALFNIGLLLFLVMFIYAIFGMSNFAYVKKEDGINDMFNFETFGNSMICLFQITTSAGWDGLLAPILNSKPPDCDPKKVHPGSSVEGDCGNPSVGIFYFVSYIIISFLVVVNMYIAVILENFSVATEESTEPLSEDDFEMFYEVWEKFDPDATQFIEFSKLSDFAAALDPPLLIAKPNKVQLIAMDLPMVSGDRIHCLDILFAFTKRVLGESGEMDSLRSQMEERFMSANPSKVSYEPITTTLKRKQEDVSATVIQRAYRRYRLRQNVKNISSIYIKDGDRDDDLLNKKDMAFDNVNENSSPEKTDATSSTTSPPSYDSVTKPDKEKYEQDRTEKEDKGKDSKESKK

The test deals with human NaV 1.7 (Homo sapiens, UniProt Q15858). Kind of test: E-VIPR optical membrane potential assay with electrical stimulation. The format is cell-based. The following applies: sodium channel inhibition; read-out: Binned Activity Data (IC50). The text has this:
Assays for Detecting and Measuring NaV Inhibition Properties of Compound E-VIPR Optical Membrane Potential Assay Method with Electrical Stimulation
Sodium channels are voltage-dependent proteins that can be activated by inducing membrane voltage changes by applying electric fields. The electrical stimulation instrument and methods of use are described in Ion Channel Assay Methods PCT/US01/21652, herein incorporated by reference and are referred to as E-VIPR. The instrument comprises a microtiter plate handler, an optical system for exciting the coumarin dye while simultaneously recording the coumarin and oxonol emissions, a waveform generator, a current- or voltage-controlled amplifier, and a device for inserting electrodes in well. Under integrated computer control, this instrument passes user-programmed electrical stimulus protocols to cells within the wells of the microtiter plate.
24 hours before the assay on E-VIPR, HEK cells expressing human NaV subtype, like NaV 1.7, are seeded in 384-well poly-lysine coated plates at 15,000-20,000 cells per well. Other subtypes are performed in an analogous mode in a cell line expressing the NaV of interest. HEK cells are grown in media (exact composition is specific to each cell type and NaV subtype) supplemented with 10% FBS (Fetal Bovine Serum, qualified; GibcoBRL #16140-071) and 1% Pen-Strep (Penicillin-Streptomycin; GibcoBRL #15140-122). Cells are grown in vented cap flasks, in 90% humidity and 10% CO2, to 100% confluence. They are usually split by trypsinization 1:10 or 1:20, depending on scheduling needs, and grown for 2-3 days before the next split.
Bath1 buffer. Glucose 10 mM (1.8 g/L), Magnesium Chloride (Anhydrous), 1 mM (0.095 g/L), Calcium Chloride, 2 mM (0.222 g/L), HEPES 10 mM (2.38 g/L), Potassium Chloride, 4.5 mM (0.335 g/L), Sodium Chloride 160 mM (9.35 g/L).
Hexyl Dye Solution: Bath1 Buffer+0.5% β-cyclodextrin (make this prior to use, Sigma #C4767), 8 μM CC2-DMPE+2.5 μM DiSBAC6(3). To make the solution Add volume of 10% Pluronic F127 stock equal to volumes of CC2-DMPE+DiSBAC6(3). The order of preparation is first mix Pluronic and CC2-DMPE, then add DiSBAC6(3) while vortexing, then add Bath1+β-Cyclodextrin.
1) Pre-spot compounds (in neat DMSO) into compound plates. Vehicle control (neat DMSO), the positive control (20 mM DMSO stock tetracaine, 125 μM final in assay) and test compounds are added to each well at 160× desired final concentration in neat DMSO. Final compound plate volume will be 80 μL (80-fold intermediate dilution from 1 μL DMSO spot; 160-fold final dilution after transfer to cell plate). Final DMSO concentration for all wells in assay is 0.625%.
2) Prepare Hexyl Dye Solution.
3) Prepare cell plates. On the day of the assay, medium is aspirated and cells are washed three times with 100 μL of Bath1 Solution, maintaining 25 μL residual volume in each well.
4) Dispense 25 μL per well of Hexyl Dye Solution into cell plates. Incubate for 20-35 minutes at room temp or ambient conditions.
5) Dispense 80 μL per well of Bath1 into compound plates. Acid Yellow-17 (1 mM) is added and Potassium Chloride can be altered from 4.5 to 20 mM depending on the NaV subtype and assay sensitivity.
6) Wash cell plates three times with 100 μL per well of Bath1, leaving 25 μL of residual volume. Then transfer 25 uL per well from Compound Plates to Cell Plates. Incubate for 20-35 minutes at room temp/ambient condition
7) Read Plate on E-VIPR. Use the current-controlled amplifier to deliver stimulation wave pulses for typically 9 seconds and a scan rate of 400 Hz. A pre-stimulus recording is performed for 0.5 seconds to obtain the un-stimulated intensities baseline. The stimulatory waveform is applied for 9 seconds followed by 0.5 seconds of post-stimulation recording to examine the relaxation to the resting state. […]
For `N#Cc1ccc2n1-c1ccccc1OC21CCN(C(=O)c2ccc(OC(F)F)cc2)CC1` [Compound 2], the pIC50 is below 5.30. Next, `COc1c(CO)cccc1C(=O)N1CCC2(CC1)Oc1ccccc1-n1c(C#N)ccc12` [Compound 3]: at least 5.70; `CC(C)C(O)c1ccc(C(=O)N2CCC3(CC2)Oc2ccccc2-c2nn(C)cc23)cc1` (stereo not drawn) [Compound 4]: at least 5.70; `Cc1cc(C(=O)N2CCC3(CC2)Oc2ccccc2-c2c3cnn2C)ccc1OC(C)C` [Compound 5]: at least 5.70.

Take `Cc1cc(C(=O)N2CCC3(CC2)Oc2cccc(C)c2-n2cccc23)ccc1OC(C)C` [Compound 7]: the pIC50 was at least 5.70. Turning to `Nc1nc2ccc(C(=O)N3CCC4(CC3)Oc3ccccc3-n3c(C(F)(F)F)ccc34)cc2s1` [Compound 8], the pIC50 was 5.30 to 5.70. Next, `O=C(c1ccc(C2(O)COC2)cc1)N1CCC2(CC1)Oc1ccccc1-n1c(C(F)(F)F)ccc12` [Compound 9]: at least 5.70; `CC(C)CS(=O)(=O)c1ccc(C(=O)N2CCC3(CC2)Oc2ccccc2-n2c(C(F)(F)F)ccc23)cc1` [Compound 11]: at least 5.70; `CC(C)(C(=O)O)S(=O)(=O)c1ccc(C(=O)N2CCC3(CC2)Oc2ccccc2-n2c(C(F)(F)F)ccc23)cc1` [Compound 12]: 5.30 to 5.70. Next, `CCOc1ccc(C(=O)N2CCC3(CC2)Oc2ccccc2-c2c3cnn2C)c(OCC)c1C` [Compound 13]: at least 5.70; `COc1ccc2[nH]cc(C(=O)N3CCC4(CC3)Oc3ccccc3-c3c4cnn3C)c2c1` [Compound 14]: at least 5.70; `O=C(c1ccc2ncsc2c1)N1CCC2(CC1)Oc1ccccc1-n1c(C(F)(F)F)ccc12` [Compound 15]: below 5.30. Next, `COc1ccc2c(c1)-c1c(cnn1C)C1(CCN(C(=O)c3ccccc3OC)CC1)O2` [Compound 16]: at least 5.70; `N#Cc1ccc2n1-c1ccccc1OC21CCN(C(=O)c2ccc(S(=O)(=O)NCCO)cc2)CC1` [Compound 17]: 5.30 to 5.70; `O=C(c1ccccc1OC(F)F)N1CCC2(CC1)Oc1cc(Cl)ccc1-n1cccc12` [Compound 21]: at least 5.70. `Cc1cc(C)c(C(=O)N2CCC3(CC2)Oc2cc(Cl)ccc2-n2cccc23)c(=O)[nH]1` [Compound 22]: the pIC50 was 5.30 to 5.70. Next, `COc1c(CO)cccc1C(=O)N1CCC2(CC1)Oc1ccccc1-n1c(C(F)(F)F)ccc12` [Compound 23]: at least 5.70; `COc1c(F)cccc1C(=O)N1CCC2(CC1)Oc1ccccc1-n1c(C#N)ccc12` [Compound 24]: at least 5.70; `Cn1ncc2c1-c1ccccc1OC21CCN(C(=O)c2ccc(OCCOC(F)(F)F)c(C#N)c2)CC1` [Compound 26]: at least 5.70. Consider `Cc1ccc(C(=O)N2CCC3(CC2)Oc2ccccc2-n2cccc23)cc1Cl` [Compound 27], for which the pIC50 is at least 5.70. Take `Cn1ncc2c1-c1ccccc1OC21CCN(C(=O)c2ccc(OC(C)(C)C)cc2)CC1` [Compound 28]: the pIC50 is 5.30 to 5.70. Next, `COc1cc(Cl)cc(C(=O)N2CCC3(CC2)Oc2cc(Cl)ccc2-n2cccc23)c1` [Compound 29]: at least 5.70; `COc1cc(C(=O)N2CCC3(CC2)Oc2cc(F)ccc2-n2cccc23)ccc1OC[C@@H](C)OC` [Compound 30]: at least 5.70; `COC[C@@H](C)Oc1ccc(C(=O)N2CCC3(CC2)Oc2cc(Cl)ccc2-n2cccc23)cc1OC` [Compound 31]: at least 5.70. Next, `Cc1cc(C(=O)N2C3CCC2CC2(C3)Oc3ccccc3-n3cccc32)ccc1OC(C)C` (stereo not drawn) [Compound 32]: at least 5.70; `COc1cc(C(=O)N2CCC3(CC2)Oc2cc(F)ccc2-n2cccc23)ccc1O[C@@H]1CCC[C@H]1O` [Compound 34]: at least 5.70; `CC(C)Oc1ccc(C(=O)N2CCC3(CC2)Oc2ccccc2-n2c(C(F)(F)F)ccc23)nc1` [Compound 36]: at least 5.70.

With `O=C(c1ccc(OC2COC2)c(C(F)(F)F)c1)N1CCC2(CC1)Oc1ccccc1-n1cccc12` [Compound 37], the pIC50 is at least 5.70. Next, `Cc1cc(C(=O)N2CCC3(CC2)Oc2cc(F)ccc2-n2cccc23)ccc1OC(C)C` [Compound 38]: at least 5.70. Next, `CC(C)c1ccc(C(=O)N2CCC3(CC2)Oc2cc(Cl)ccc2-n2cccc23)c(=O)[nH]1` [Compound 39]: at least 5.70; `CC(C)Oc1ccc(C(=O)N2CCC3(CC2)Oc2ccccc2-c2c3cnn2C)c(C#N)c1` [Compound 40]: 5.30 to 5.70; `COc1ccc(C(=O)N2CCC3(CC2)Oc2ccccc2-n2cccc23)cc1S(C)(=O)=O` [Compound 41]: at least 5.70. Next, `CC(C)Oc1ccc(C(=O)N2CCC3(CC2)Oc2ccccc2-n2c(C#N)ccc23)cc1F` [Compound 42]: at least 5.70; `Cn1ncc2c1-c1ccccc1OC21CCN(C(=O)c2cccc3ncn(C)c23)CC1` [Compound 43]: 5.30 to 5.70. For `Cc1c(F)cccc1C(=O)N1CCC2(CC1)Oc1ccccc1-c1c2cnn1C` [Compound 44], the pIC50 is at least 5.70. Next, `COc1cc(C(=O)N2CCC3(CC2)Oc2cc(Cl)ccc2-n2cccc23)ccc1C1(OC)COC1` [Compound 45]: at least 5.70. `COc1cc(C(=O)N2CCC3(CC2)Oc2ccccc2-n2c([S+](C)[O-])ccc23)ccc1OC(C)(C)C` (stereo not drawn) [Compound 46]: the pIC50 is below 5.30. Next, `COc1cc(C(=O)N2CCC3(CC2)Oc2ccccc2-c2c3cnn2C)ccc1OCC(C)C` [Compound 47]: at least 5.70.

On to `COc1cc(C(=O)N2CCC3(CC2)Oc2ccccc2-n2cccc23)ccc1OC[C@H](C)OC` [Compound 48], for which the pIC50 was at least 5.70. Next, `CC(CO)NS(=O)(=O)c1ccc(C(=O)N2CCC3(CC2)Oc2ccccc2-n2c(C#N)ccc23)cc1` (stereo not drawn) [Compound 49]: below 5.30. Next, `CC(C)C(O)c1ccc(C(=O)N2CCC3(CC2)Oc2ccccc2-n2c(C(F)(F)F)ccc23)cc1` (stereo not drawn) [Compound 50]: at least 5.70. Turning to `CCn1ncc2c1-c1ccccc1OC21CCN(C(=O)c2ccc(OCCOC)c(OC)c2)CC1` [Compound 51], the pIC50 was at least 5.70. Next, `Cc1cc(C(=O)N2CCC3(CC2)Oc2cc(F)ccc2-n2cccc23)ccc1C(C)(C)O` [Compound 52]: at least 5.70. Next, `Cc1cc(S(=O)(=O)C(C)C)ccc1C(=O)N1CCC2(CC1)Oc1ccccc1-c1c2cnn1C` [Compound 53]: at least 5.70. Next, `Cc1cc(C(=O)N2CCC3(CC2)Oc2ccccc2-n2c(C#N)ccc23)ccc1[C@](C)(O)CO` [Compound 54]: at least 5.70.

Turning to `CCc1ccc(C(=O)N2CCC3(CC2)Oc2cc(Cl)ccc2-n2cccc23)cc1C` [Compound 55], the pIC50 is at least 5.70. Next, `CC1Oc2c(C(=O)N3CCC4(CC3)Oc3ccccc3-c3c4cnn3C)cccc2C1C` (stereo not drawn) [Compound 56]: at least 5.70; `O=C(c1cc(Cl)cc(C(F)(F)F)c1)N1CCC2(CC1)Oc1cc(Cl)ccc1-n1cccc12` [Compound 57]: at least 5.70. As to `COc1cc(C(=O)N2CCC3(CC2)Oc2ccccc2-n2cccc23)ccc1C(C)(C)O` [Compound 59], the pIC50 was at least 5.70.

Take `COc1cc(F)cc(C(=O)N2CCC3(CC2)Oc2cc(Cl)ccc2-n2cccc23)c1` [Compound 60]: the pIC50 is at least 5.70. Next, `COCCOc1ccc(C(=O)N2CCC3(CC2)Oc2ccccc2-n2cccc23)cc1C#N` [Compound 62]: at least 5.70.

A word on the pIC50: it is the IC50 on a negative log10 scale, so that one unit is a factor of ten.
